Entries after “also recorded” stand apart in the source; their conditions may differ.
Assays:
Format in all cases: in vivo, rice
[1] = system: mutant line ML0831266-03093; assay: Mesotrione tolerance trials / herbicide bioassay
Description: After the initial screening of the “mutation population,” the lines with no damage were selected and tested in additional experiments using different rates of the herbicide. In particular, a rate response experiment was conducted in which two different rates of mesotrione were applied pre-emergence, plus an additional foliar application was also applied. […] Progeny of this designated ML0831266-03093 are maintained as a new line carrying resistance to mesotrione herbicide. Seeds are deposited under ATCC PTA-13620. The line (ML0831266-03093) is a source of resistance that is backcrossed into proprietary rice lines or used directly in breeding to develop new proprietary rice lines. The developed lines are a source of herbicide resistance for use in development of new hybrids that offer an alternative mode of action to control weeds in rice. Affording this opportunity to growers is of great value both in providing high yields and in extending the useful life of available weed control technologies. These herbicide resistant traits can be tracked through the simple application of herbicides to growing plants.
Selection of material inheriting mesotrione tolerance is accomplished by a simple herbicide bioassay. A high rate of mesotrione (at least 420 gm ai/ha) is applied allowing differentiation of heterozygous individuals from homozygous individuals and the tolerance level of the […] line from the inherent tolerance level in the background of some types of rice. In one example a rate of 105 gm ai/ha is applied followed three weeks later by a second application of 630 gm ai/ha. In another example a rate of 420 gm ai/ha is applied in a single application. Yet another example entails applying the herbicide at a rate of 630 gm ai/ha. Herbicide applications are done at the three to four leaf stage of seedling growth. The ideal situation is to have also planted near or within the plants to be selected a set of plants from the original mutant mesotrione tolerant donor line ML0831266-03093, (FIG. 18A) a row of plants of the wild-type of the […] line, P1003 (FIG. 18B), and a row of the line involved as the other parent in the cross (FIG. 18C). These control lines allow easy differentiation for inheritance of the tolerance provided by the ML0831266-03093 mutant line through comparison of the response in the plants to be selected with the control lines. Only plants that live and are relatively healthy will have inherited and be homozygous for the tolerance level provided by the ML0831266-03093 mutant line (FIG. 18A).
The mutant line is planted in rows or alternatively whole plots are planted and rows of the unmutated line (P1003) and other types of rice or whole plots are planted. Mesotrione is applied pre-emergence or alternatively it is applied post-emergence at the three to four leaf stage of the rice plants. Various rates of mesotrione are applied pre-emergence, pre-emergence followed by post-emergent, or post-emergent with a single or sequential application. Post-emergent applications are applied at the 3-4 leaf stage of the rice.
Seedlings of size 3 to 4 leaves are sprayed with mesotrione herbicide. In one set of 89 plants mesotrione is first applied at 105 gm ai/ha killing 23 plants. Both the mutant line control ML0831266-03093 and the unmutated line P1003 survived the herbicide application while the unmutated line R0146 was killed. […]

line PL1214418M2-73009 = assay: Mesotrione trait tolerance trial
Description: Two trials were conducted to measure recovery of tolerance to both ACCase and HPPD herbicides in the new line PL1214418M2-73009. Recovery of tolerance in the line combining the two traits will illustrate that the traits are heritable and can be used to produce new varieties and hybrids carrying herbicide resistance. These trials are important as often times it is difficult to recover complex QTLs for quantitative traits or in some cases a traits response is dependent upon the genetic background. In the first trail the lines resistance to mesotrione (HPPD herbicide) was evaluated by planting line PL1214418M2-73009, the HPPD resistant line ML0831266-03093 and wild-type rice line P1003 and R0146 in plots (5 feet×10 feet). […]
During the breeding process to develop new lines (PL1214418M2-80048 and PL1214418M2-73009) with resistance/tolerance to HPPD and ACCase herbicides, two other lines were also investigated to determine the contribution of the HPPD tolerance mutation and the HPPD tolerance native gene. […] The tolerance effect of each gene was measured by growing the lines in single rows including the newly developed line PL1214418M2-73009 that carries both the HPPD tolerance from the mutation and the non-induced tolerance, the HPPD tolerant line ML0831266-0309, and the non-induced parent line P1003. […]

line PL1214418M2-73001 = assay: Mesotrione trait tolerance trial; details: 0.5x to 4x of 210 gmai/ha at 4 leaf stage, evaluated 4 weeks after application
Excerpt: During the breeding process to develop new lines (PL1214418M2-80048 and PL1214418M2-73009) with resistance/tolerance to HPPD and ACCase herbicides, two other lines were also investigated to determine the contribution of the HPPD tolerance mutation and the HPPD tolerance native gene. The line PL1214418M2-73001 carries ACCase tolerance and only the HPPD tolerance, whereas […] PL1214418M2-73013 carries ACCase tolerance and only the HPPD native tolerance gene. These selections allow the estimation of the tolerance effect of each of the two genes required for tolerance to HPPD herbicides. The tolerance effect of each gene was measured by growing the lines in single rows including the newly developed line PL1214418M2-73009 that carries both the HPPD tolerance from the mutation and the non-induced tolerance, the HPPD tolerant line ML0831266-0309, and the non-induced parent line P1003. The field plots were sprayed at the 4 leaf stage with the HPPD herbicide mesotrione at 0.5×, 1×, 2×, and 4× multiples of the labeled application rate of 210 gmai/ha.
The plots were evaluated 4 weeks after the herbicide was applied. […] The two genes also appear to function in an additive manner as only by combining the two in the new line PL1214418M2-73009 does the tolerance level become equivalent to the original mutant line ML0831266-0309.

In the case of CS(=O)(=O)c1ccc(C(=O)C2C(=O)CCCC2=O)c([N+](=O)[O-])c1 [mesotrione], the tolerance to mesotrione ([1]; 420 gm ai/ha) is reported as “tolerant”, the “tolerance to mesotrione in the presence of common rice weeds” value ([1]; applied rates of mesotrione, FIG. 6) is reported as “completely tolerant” and the survival after mesotrione ([1]; higher rates) is reported as “survives”. For the same compound, the survival after mesotrione ([1]; low rate 105 gm ai/ha) was “survived”, the “response of the rice to mesotrione” value ([1]; one application at 105 gai/ha followed by a second application of 630 gai/ha) was “tolerant; also recorded: little damage” and the “tolerance to mesotrione compared with the original HPPD tolerant line ML0831266-03093” value (line PL1214418M2-73009; 0.5x to 4x of the labeled rate 210 gmai/ha) was “equivalent tolerance; also recorded: the same response”. The tolerance to mesotrione (line PL1214418M2-73009; in vivo) was “tolerance” and the “tolerance to mesotrione compared with P1003 and ML0831266-0309” value (line PL1214418M2-73001) was “intermediate tolerance”.
